Data from patent publication US11793779B2, “Hica for use in prophylaxis and/or treatment of a disease or condition involving degradation of cartilage and/or disruption of cartilage homeostasis and/or integrity” (Salarusta Oy, priority 2020, dated 2023).

What was measured:
[1] = target: T1, human Matrix metalloproteinase 13 (MMP-13) (Homo sapiens, UniProt P45452); test: MMP-13 mediated break down of aggrecan (SDS-PAGE, silver stain); assay type: biochemical; details: 10% racemic HICA, APMA-activated MMP-13, incubation 2 d, FIG. 1 line 11
T1 construct: purchased BioTeZ, Berlin-Buch, Berlin, Germany 30100802
Method: As positive inhibitor controls Ilomastat (Ilo, CC1010, Millipore) and chlorhexidine (CHX, Corsodyl®, [2 mg/ml] (GlaxoSmithKline, Brøndby, Denmark) were used and 50 mM Tris-HCl-buffer (TNC): pH 7.5; 0.2 M NaCl; 1.0 mM CaCl2) was used as neutral assay buffer.
MMP-13 was preincubated 1 hour at 37° C. with p-aminophenylmercuric acetate (APMA, A9563, Sigma-Aldrich) to optimally activate (pro)MMP-13. As substrate, Aggrecan was added and then ADAMTS-5 or activated MMP-13 as catalytic/proteolytic enzyme and TNC, as neutral control, and 10% HICA, CHX or Ilo as protease/MMP-inhibitors let incubated together from 1 hour (h) to 2 days (d). The enzyme reactions terminated by boiling with modified Laemmli buffer. The samples were analysed by 8% SDS-PAGE and after electrophoresis the defragmentation of Aggrecan was visualised using Silver Stain Pierce®.
Sample with concentrations in lines: • 1. 0.25 μl molecular weight standards. Bio-Rad • 2. 4.2 μl Aggrecan (0.5 μg/μl) • 3. 4 μl ADAMTS-5 (0.1 μg/μl) • 4. 4.2 μl Aggrecan+4 μl ADAMTS-5+6 μl TNC-buffer. inc: 2d • 5. 4.2 μl Aggrecan+4 μl ADAMTS-5+6 μl 10% HICA. inc: 2d • 6. 4.2 μl Aggrecan+4 μl ADAMTS-5+6 μl CHX (2 mg/ml). inc: 2d • 7. 1 μl MMP-13 (0.2 μg/μl)+3 μl 2 mM APMA+6 μl TNC • 8. 4.2 μl Aggrecan+1 μl MMP-13 (0.2 μg/μl)+3 μl 2 mM APMA+6 μl TNC. inc: 1h • 9. 4.2 μl Aggrecan+1 μl MMP-13 (0.2 μg/μl)+3 μl 2 mM APMA+6 μl TNC. inc: 2d • 10. […]

S-Hyaluronan = test: Serum hyaluronan (HA-ELISA) in 4-week double-blind study; assay type: in vivo, human
Method: (§1) In order to assess the effects of HICA on type II collagen and hyaluronic acid in healthy adults in vivo a study was conducted, where fifteen healthy male athletes (age 21.3±2.8 yr) volunteered for the 4-week study with double-blind design (Table 1). They were randomized to two parallel groups. Subjects in Group 1 (n=8, age 22.8±4.6 yr, height 179±6 cm, weight 76.2±6.9 kg, fat % 14.1±3.7%) received 583.2 mg of sodium salt of HICA (corresponding 500 mg of HICA) thrice a day for 4 weeks, and those in Group 2 (n=7, age 21.3±3.0 yr, height 178±5 cm, weight 73.5±5.0 kg, fat % 11.1±3.0%) received placebo (650 mg of maltodextrin) thrice a day for the same period. The subjects and the controls received repacked substance of equal volume (1.5 ml) which they were advised to mix with liquid. The subjects and the controls kept physical training constant during the study period, and they kept training daily. Serum specimens were obtained at baseline and in the end of the treatment. Specimens were aliquoted and immediately frozen; serum was collected and frozen at −70° C.
Serum HA was measured by Hyaluronan Enzyme-Linked Immunosorbent Assay Kit, HA-ELISA (Echelon Biosciences Inc., Salt Lake City, USA). Intra- and interassay coefficients of variation of the serum HA assay were 3.2% and 4.42% respectively. The assay range was 15-1,000 ng/ml, the intraassay CV was <4%, the interassay CV was <6%. […]

[2] = system: type II collagen C2C neoepitope; test: Serum type II collagen C2C neoepitope (ELISA) in 4-week double-blind study; assay type: in vivo, human
Method: as §1
A kit for determination of the type II collagen C2C neoepitope was provided by Ibex Technologies (Montreal, Quebec, Canada). It was measured by means of an enzyme-linked immunosorbent assay (ELISA) (Kojima, Mwale et al. 2001). […]

[3] = Characteristics of the subjects after four weeks on HICA; assay type: in vivo, human; details: Mean ± SD
Method: as §1
The Analysis of Variance (ANOVA) was used to assess statistical differences between the treatment groups. Data were handled as changes between the measurements before and after the treatments. Further, paired t-test was used to compare values before and after treatments. Probabilities less than 0.05 were regarded as statistically significant. Statistical analyses were carried out using the software program Systat for Windows (Statistics, Version 9, Evanston, IL, USA, 1992). The results are presented as means±SEM.

- inhibition of break down of Aggrecan by MMP-13 [1]: inhibited the break down of Aggrecan
- Hematocrite after HICA ([3]; before 0.44 ± 0.02, p = n.s. vs placebo): 0.45 ± 0.02
- Body Fat procent after HICA ([3]; before 14.1 ± 3.7, p = n.s. vs placebo): 14.0 ± 2.5%
- Weight after HICA ([3]; before 76.2 ± 6.9, p = n.s. vs placebo): 76.5 ± 8.4 kg
- Hemoglobin after HICA ([3]; before 152 ± 7, p = n.s. vs placebo): 151 ± 5 g/L
SMILES: CC(C)CC(O)C(=O)O (racemic) [HICA, 2-hydroxy-4-methylpentanoic acid]
- S-Hyaluronan after HICA (S-Hyaluronan; Mean ± SEM, n=8 healthy male athletes, sodium salt of HICA corresponding 500 mg HICA thrice a day for 4 weeks, before 202 ± 56, p = 0.066 vs placebo): 143 ± 19 ng/mL
- decrease in serum HA concentration (S-Hyaluronan; during 4-week administration of HICA, placebo 10%, p=0.066 between the groups): 29%
- S-C2C after HICA ([2]; Mean ± SEM, n=8 healthy male athletes, sodium salt of HICA corresponding 500 mg HICA thrice a day for 4 weeks, before 204 ± 14, p = 0.069 vs placebo): 189 ± 10 ng/mL
- decrease in serum C2C ([2]; during 4-week administration of HICA, placebo 2%, p=0.069 between the groups): 8%
